Source: patent US10744214B2, “Method of diagnosing and/or monitoring therapy of atherosclerosis” (STC.UNM, priority 2015, dated 2020)
“Also recorded” adds a separate entry of the source.

Assays:
[1] = In vitro stability of radiolabeled DANBIRT in fetal bovine serum and 0.9% saline; type: in vitro ADME; conditions: FBS and 0.9% saline, 4 hours
Procedure: Incubation of [^68Ga] Ga-DANBIRT with Fetal Bovine Serum (FBS) (Atlanta Biologicals, S11150) and 0.9% saline solution was performed in vitro stability analysis. Triplicate samples were drawn from radiolabeled stock and kept incubated at 37° C. until time of analysis. ITLC was performed once at each time point and HPLC assessment was performed in triplicates at baseline, 5, 10, 30, 60, 120 and 240 minutes of incubation. The mean incorporation yield and radiochemical purity were calculated from sample results. Following methods by Poria et al methods were modified for use in a Ultra-Performance Liquid Chromatography (UPLC) using an Acquity UPLC BEH C-18 1.7 μm column (2.1×50 mm) (Waters Corporation, 186002350). UPLC gradient with flow rate is described in FIG. 14.

[2] = Ex vivo biodistribution of [111In] In-DANBIRT post tail vein injection in ApoE-/- mice
Procedure: • Animals were imaged for ˜75 minutes 3 hrs post tail vein injection of ˜700 uCi (˜25.9 Mbq) of ^111In-DANBIRT • Atorvastatin was administered in the drinking water and PPAR-Delta agonist (GW1516) was incorporated into food pellets by diet manufacturing company. • Organ and serum collection for bio distribution and lipid levels and sub particles size analysis was performed after last imaging time point
Upon completion of 8 weeks on normal or HFD, mice were euthanized 3 hours post-injection of 700 μCi of [^111In] In-DANBIRT via tail vein; organs were harvested for weight assessment and [^111In] In-DANBIRT uptake using an Automatic Wizard 2 Gamma counter (Perkin Elmer). Organs collected were: tail, whole blood, aorta (from aortic arch to thoracic aorta), carotids (front aortic arch to bifurcation), heart, liver, muscle and adipose tissue. Whole blood was collected with direct cardiac puncture of right ventricle using a 24-gauge needle of right ventricle with a heparinized syringe and centrifuged for 15 minutes at 1000 g at 4° C. Serum, erythrocytes (RBC) and leukocytes (WBC) containing isolated samples were collected and measured for [^111In] In-DANBIRT uptake using a gamma counter. Uptake was decay-corrected and percent-injected activity per gram (% IA/gr) was determined for each mouse.

[3] = target: T1, LFA-1 (Mus musculus, UniProt P24063); assay: 24 hr [111In] In-DANBIRT 3D autoradiography of ApoE-/- mice; type: in vivo
T1 construct: presence of inflammatory LFA-1 in immune and cardiovascular tissues; from tissue; host or cells: living or euthanized male ApoE-/- C57BL/6 mice: heart, aortic arch, descending aorta, carotids, thymus
Procedure: Methods: 6 week ApoE […] mice were fed either normal or high fat chow (n=8 per group) for 8 weeks to induce vascular atherosclerotic lesions. SPECT/CT imaging was performed 3-hrs post injection of ˜700 uCi of ^111In-DANBIRT at baseline, 4 weeks and 8 weeks. Whole body Autoradiography was performed 24-hrs post injection after 8-week time point. Image processing and analysis was performed by region of interest (ROI) determination in relationship to voxel and volume, uptake quantification was normalized to muscle uptake. Blood partition assays were conducted to ascertain specific binding components. […]
Mice were euthanized by CO2 method after 8 weeks of dietary assessment. […] Autoradiography and white light files were compiled and analyzed using VivoQuant 2.00 (inviCRO, Boston, Mass.). Determined ROI were drawn using the best quality image phantom from reconstructed CT (FIG. 14, Table 3) for the thymus, muscle, carotids and aortic arch. […]

[4] = 8 weeks of diet, 3 hours post-injection, p<0.05

T1 sequence (P24063 24-1162): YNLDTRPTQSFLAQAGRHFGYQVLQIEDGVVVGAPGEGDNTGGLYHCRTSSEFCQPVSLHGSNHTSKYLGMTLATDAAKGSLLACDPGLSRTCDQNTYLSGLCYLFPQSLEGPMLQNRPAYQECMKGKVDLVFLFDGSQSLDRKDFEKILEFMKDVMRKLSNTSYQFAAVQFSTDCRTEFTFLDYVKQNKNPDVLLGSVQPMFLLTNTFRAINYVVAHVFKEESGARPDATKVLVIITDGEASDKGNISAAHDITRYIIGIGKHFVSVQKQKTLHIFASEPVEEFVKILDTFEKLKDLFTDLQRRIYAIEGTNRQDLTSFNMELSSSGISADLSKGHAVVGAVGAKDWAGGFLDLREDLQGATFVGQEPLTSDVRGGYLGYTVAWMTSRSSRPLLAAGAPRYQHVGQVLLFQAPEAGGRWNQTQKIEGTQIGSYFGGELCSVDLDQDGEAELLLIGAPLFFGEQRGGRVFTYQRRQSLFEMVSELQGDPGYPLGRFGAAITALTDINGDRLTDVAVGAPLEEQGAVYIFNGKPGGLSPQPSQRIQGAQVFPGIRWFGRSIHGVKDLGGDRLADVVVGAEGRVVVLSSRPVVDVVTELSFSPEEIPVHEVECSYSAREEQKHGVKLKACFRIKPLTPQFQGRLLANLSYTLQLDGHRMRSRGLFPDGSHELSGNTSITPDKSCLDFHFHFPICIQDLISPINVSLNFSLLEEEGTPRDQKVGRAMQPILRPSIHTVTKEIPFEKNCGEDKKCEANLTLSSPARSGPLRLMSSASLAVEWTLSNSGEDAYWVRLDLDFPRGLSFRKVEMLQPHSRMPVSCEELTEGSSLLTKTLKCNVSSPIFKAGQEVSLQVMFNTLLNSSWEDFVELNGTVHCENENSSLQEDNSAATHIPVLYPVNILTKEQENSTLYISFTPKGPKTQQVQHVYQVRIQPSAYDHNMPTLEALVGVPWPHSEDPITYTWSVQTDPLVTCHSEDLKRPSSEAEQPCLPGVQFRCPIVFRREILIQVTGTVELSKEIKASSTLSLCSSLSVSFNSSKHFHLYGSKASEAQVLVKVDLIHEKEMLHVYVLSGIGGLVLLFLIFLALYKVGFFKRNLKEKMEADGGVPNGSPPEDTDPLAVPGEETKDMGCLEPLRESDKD
T1 sequence (P11835 24-771 partner): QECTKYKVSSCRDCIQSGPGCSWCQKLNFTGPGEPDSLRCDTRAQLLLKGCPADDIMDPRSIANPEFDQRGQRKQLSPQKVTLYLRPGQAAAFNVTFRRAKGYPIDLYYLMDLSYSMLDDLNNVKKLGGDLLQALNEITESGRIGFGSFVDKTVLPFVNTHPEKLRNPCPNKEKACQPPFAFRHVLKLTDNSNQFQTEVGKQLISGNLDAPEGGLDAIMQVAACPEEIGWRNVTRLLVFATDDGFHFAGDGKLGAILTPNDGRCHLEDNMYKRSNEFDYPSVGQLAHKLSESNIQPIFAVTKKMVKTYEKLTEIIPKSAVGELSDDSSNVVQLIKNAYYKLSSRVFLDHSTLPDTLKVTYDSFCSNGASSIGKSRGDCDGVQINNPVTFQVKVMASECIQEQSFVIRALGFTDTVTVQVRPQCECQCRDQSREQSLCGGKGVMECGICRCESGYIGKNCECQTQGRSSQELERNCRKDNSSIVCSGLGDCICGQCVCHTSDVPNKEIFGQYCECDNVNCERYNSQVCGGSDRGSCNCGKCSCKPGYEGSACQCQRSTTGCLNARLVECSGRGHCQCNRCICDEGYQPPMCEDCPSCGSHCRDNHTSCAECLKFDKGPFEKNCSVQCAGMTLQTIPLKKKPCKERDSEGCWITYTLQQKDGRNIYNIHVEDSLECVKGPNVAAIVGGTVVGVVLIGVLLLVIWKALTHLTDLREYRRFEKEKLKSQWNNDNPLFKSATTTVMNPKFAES

## C[C@]1(Cc2ccc(Br)cc2)C(=O)N(c2cc(Cl)cc(Cl)c2)C(=O)N1CCCCNC(=O)CN1CCN2CCN3CCN(CC1)CC(=O)[O][111In]([O]C(=O)C2)[O]C(=O)C3 [[^111In] In-DANBIRT]
[1]
  stability on incubation: maintained throughout 4 hours of incubation
[2]; [4]
  uptake in RBC and WBC samples, HFD vs normal diet: increased uptake
  uptake in cardiovascular tissues (heart, aorta, carotids), HFD vs normal diet: higher uptake
[2]; 8 weeks of diet, p<0.05
  % IA/gr of tissue, HFD vs normal diet: increase
[2]; 3 hours post-injection
  uptake in adipose tissue and muscle: low uptake
[2]; 3 hours post-injection of 700 μCi
  uptake in serum compared to other blood components: high uptake
[2]; 3 hours post-injection of 700 μCi, regardless of dietary treatment
  uptake in liver compared to other tissues: high uptake
[2]; Example 2, 1st cohort
  organ bio distribution uptake in liver, serum, aorta and blood components: significant uptake
[3]; 24 hr post injection after 8 weeks of diet
  uptake in carotids and thymus, concentration per volume normalized to muscle, HFD vs normal diet: increase; also recorded: Increased uptake
[3]; Example 1, autoradiography and SPECT/CT analysis
  uptake in the thymus: Increased uptake
